The subject of assay [1] is MDA-MB-231. Description: Antiproliferative activity against human MDA-MB-231 cells assessed as inhibition of cell growth incubated for 72 hrs by MTT assay. The format is functional, cell-based. The note with it: MDA-MB-231, 72 h. A general note: Formazan colour is commonly taken as a measure of viable cells.
Assay [2] deals with SUM-159-PT. Description: Antiproliferative activity against human SUM159 cells assessed as inhibition of cell growth incubated for 72 hrs by MTT assay. The format is functional, cell-based.
In assay [3] the test system is MCF7. Description: Antiproliferative activity against human MCF7 cells assessed as inhibition of cell growth incubated for 72 hrs by MTT assay. The format is functional, cell-based. The note with it: MCF7, 72 h.
For assay [4], the system named is MDA-MB-231. Description: Antimigratory activity in human MDA-MB-231 cells assessed as reduction in number of migrated cells incubated for 48 hrs by crystal violet staining based transwell assay. The format is functional, cell-based.
The subject of assay [5] is MDA-MB-468. Description: Induction of apoptosis in human MDA-MB-468 cells at 2 uM incubated for 48 hrs by annexin-V-APC/PI staining based flow cytometric analysis (reference value: 5.38 +/- 1.63 %). The format is functional. In general terms: A flow cytometer gives signals particle by particle.
Assay [6] has as its system MDA-MB-231. The experiment in a line: Induction of apoptosis in human MDA-MB-231 cells at 2 uM incubated for 48 hrs by annexin-V-APC/PI staining based flow cytometric analysis (reference value: 1.81 +/- 0.47 %). The format is functional.
The subject of assay [7] is MDA-MB-231. The experiment in a line: Induction of apoptosis in human MDA-MB-231 cells at 5 uM incubated for 48 hrs by annexin-V-APC/PI staining based flow cytometric analysis (reference value: 1.81 +/- 0.47 %). The format is functional.
In assay [8] the test system is MDA-MB-231. Description: Induction of apoptosis in human MDA-MB-231 cells assessed as downregulation of BCL-2 protein expression incubated for 48 hrs by Western blotting analysis. The format is functional, cell-based. Background: A western blot detects proteins with antibodies after separation by electrophoresis.
Assay [9] has as its system MDA-MB-468. Description: Induction of cell cycle arrest in human MDA-MB-468 cells assessed as increase in accumulation of cells at S phase at 0.2 to 2 uM incubated for 48 hrs by RNase/PI staining based flow cytometric analysis. As to conditions: dose 0.2-2 µM. The format is functional.
Assay [10] concerns MDA-MB-468. Description: Induction of cell cycle arrest in human MDA-MB-468 cells assessed as downregulation of Cyclin B1 protein expression incubated for 48 hrs by Western blotting analysis. The format is functional, cell-based.
In assay [11] the test system is MDA-MB-468. The experiment in a line: Induction of cell cycle arrest in human MDA-MB-468 cells assessed as downregulation of Cyclin E1 protein expression incubated for 48 hrs by Western blotting analysis. The format is functional, cell-based.
The subject of assay [12] is MDA-MB-231. The experiment in a line: Induction of cell cycle arrest in human MDA-MB-231 cells assessed as downregulation of Cyclin E1 protein expression incubated for 48 hrs by Western blotting analysis. The format is functional, cell-based.
For assay [13], the system named is MDA-MB-231. Description: Inhibition of NF-kappaB signalling pathway in human MDA-MB-231 cells assessed as downregulation of p65 phosphorylation at 0.5 to 2 uM incubated for 48 hrs by Western blotting analysis. The format is cell-based. As to conditions: dose 0.5-2 µM.
In assay [14] the test system is MDA-MB-231. Description: Inhibition of NF-kappaB signalling pathway in human MDA-MB-231 cells assessed as upregulation of cytoplasmic p65 expression at 0.2 to 2 uM incubated for 48 hrs by Western blotting analysis. The note with it: dose 0.2-2 µM. The format is cell-based.
For assay [15], the system named is 4T1. Description: Antitumor activity against mouse 4T1 cells implanted in Balb/c mouse assessed as inhibition of tumor weight at 10 mg/kg,ip administrated every two days for 20 days. The format is functional, organism-based. The note with it: time 20.0 day.
Assay [16] has as its system 4T1. Description: Antitumor activity against mouse 4T1 cells implanted in Balb/c mouse assessed as decrease in liver weight at 10 mg/kg,ip administrated every two days for 20 days. The format is functional, organism-based. The note with it: time 20.0 day.

In ChEMBL document CHEMBL5537150, “Synthesis of melampomagnolide B derivatives as potential anti-Triple Negative Breast Cancer agents” (Eur J Med Chem, 2024) one finds IC50, Activity and inhibition data, which are given here for one molecule.

The source made the active and inactive calls. The rule behind the calls is not given here.

Turning to `C=C1C(=O)O[C@H]2[C@H]1CC/C(COc1ccc(-c3cc(=S)ss3)cc1)=C\CC[C@@]1(C)O[C@@H]21`, the 50% inhibitory concentration (IC50) in assay [1] turned out to be 890 nM; in assay [2], 1510 nM; in [3] it was 3840 nM. In addition, the Activity result in assay [4] is “Dose-Dependent Effect”; in assay [5], 8.64%; in assay [6] it was 48.24%; in assay [7], 71.28%; in assay [8], “Dose-Dependent Effect”; in assay [10] it was “Dose-Dependent Effect”. Moreover, the Activity result in assay [11] and in [12] was “Dose-Dependent Effect” in each case. The outcome in [9], in assay [15] and in assay [16] was Active. Also, the inhibition entry in assay [13] and in assay [14] was “Active” each time.

In general, IC50 refers to the concentration that gives 50% inhibition.
